Laboratory results reported in patent US12514843B2, “Biofilm disruption” (QBIOTICS PTY LTD, priority 2019, dated 2026).
In brackets after ≈: the same amount, converted by molar mass.

Tests used:
[1] = system: P. aeruginosa PAO1 biofilm; assay: Disruption of established in vitro biofilm, CLSM with COMSTAT image analysis; format: cell-based, Pseudomonas aeruginosa; conditions: 256 μg/mL, vs untreated and ethanol blank controls
Method: (§1) Biofilms of E. coli IR57 were grown on 96-well glass-bottomed plates in Mueller-Hinton (MH) broth for 24 h, before 50% of the supernatant was replaced with fresh MH broth with or without the epoxytiglienone compound added to a final concentration of 256 μg/mL (vehicle is ethanol). An ethanol equivalent blank was used as a further control treatment. The plates were then incubated for a further 24 h at 37° C.
(§2) Confocal laser scanning microscopy (CLSM) was then used to image the biofilms, following staining with Live/Dead® Baclight stain with phosphate buffered saline (PBS) added to each well before imaging with z-stack CLSM. The resultant images were analysed by COMSTAT software to produce measurements of (i) biofilm biomass volume or bio-volume (μm^3/μm^2) and (ii) DEAD/LIVE bacterial ratio.
(§3) The effects of the epoxytiglienones (Compounds 1, 4, 6 and the comparator compound CC-1) on disruption of established in vitro biofilms were further investigated with two other species of Gram-negative bacteria (Pseudomonas aeruginosa PA01 and Acinetobacter baumannii 7789) using methods described in Example 2 above. Cell permeabilisation following Compound 1, 4 and 6 treatment was also determined using SYTOX™ Green Nucleic Acid Stain with untreated control and positive control of 70% isopropanol.

[2] = system: A. baumannii 7789 biofilm; assay: as above; format: cell-based, Acinetobacter baumannii; conditions: 256 μg/mL; for DEAD/LIVE bacterial ratio: vs untreated and ethanol blank controls; for biofilm bio-volume (COMSTAT): vs untreated and ethanol blank controls (p<0.05)
Method: as §1, §2, §3

[3] = system: Pseudomonas aeruginosa PAO1; assay: Minimum inhibitory concentration (MIC) assay, planktonic culture, broth dilution; format: cell-based; design: key: C = confluent growth, i.e. no MIC could be determined at any concentration tested; conditions: P. aeruginosa, planktonic culture in Mueller-Hinton broth; mean of three replicate tests
Method: (§4) The effects of five epoxytiglienones (Compounds 1, 2, 3, 4 and 6) and two comparator comparator compounds (epoxytiglienones having longer carbon chains at the C12 position) on six human pathogenic bacteria (two Gram-positive and four Gram-negative species) were measured in conventional planktonic culture systems. A minimum inhibitory concentrations (MIC) assay (the standard assay employed to define and quantify antibiotic activity) was performed to determine antibacterial activity for each epoxytiglienone against each bacterial strain.
(§5) The Gram-positive bacteria used in this study were methicillin resistant Staphylococcus aureus (MRSA) 1004A and Streptococcus pyogenes. The Gram-negative bacteria used in this study were Pseudomonas aeruginosa PAO1, Escherichia coli IR57 (V7), Klebsiella pneumoniae, and Acinetobacter baumannii 7789 (V19). MIC assays were performed on planktonic cultures of each bacteria grown in Mueller-Hinton broth using the standard broth dilution method described by Jorgensen et al. (1999) using epoxytiglienones dissolved in ethanol.

[4] = system: Klebsiella pneumoniae; assay: as above; format: cell-based; design: key: C = confluent growth, i.e. no MIC could be determined at any concentration tested; conditions: K. pneumoniae, planktonic culture in Mueller-Hinton broth; mean of three replicate tests
Method: as §4, §5

[5] = system: Escherichia coli IR57 (V7); assay: as above; format: cell-based; design: key: C = confluent growth, i.e. no MIC could be determined at any concentration tested; conditions: E. coli, planktonic culture in Mueller-Hinton broth; mean of three replicate tests
Method: as §4, §5

[6] = system: methicillin resistant Staphylococcus aureus (MRSA) 1004A; assay: as above; format: cell-based; design: key: C = confluent growth, i.e. no MIC could be determined at any concentration tested; conditions: S. aureus, planktonic culture in Mueller-Hinton broth; mean of three replicate tests
Method: as §4, §5

[7] = system: Streptococcus pyogenes; assay: as above; format: cell-based; design: key: C = confluent growth, i.e. no MIC could be determined at any concentration tested; conditions: S. pyogenes, planktonic culture in Mueller-Hinton broth; mean of three replicate tests
Method: as §4, §5

[8] = system: Acinetobacter baumannii 7789 (V19); assay: as above; format: cell-based; design: key: C = confluent growth, i.e. no MIC could be determined at any concentration tested; conditions: A. baumannii, planktonic culture in Mueller-Hinton broth; mean of three replicate tests
Method: as §4, §5

[9] = system: E. coli IR57 biofilm; assay: Disruption of established in vitro biofilm, CLSM with COMSTAT image analysis; format: cell-based, Escherichia coli; conditions: E. coli IR57 24 h biofilm, 256 μg/mL, further 24 h; vs untreated and ethanol blank controls
Method: The effects of administration of Compounds 1, 4 and 6 and comparator compound CC-1 on disruption of established in vitro biofilms of Escherichia coli (E. coli) was investigated using methods described in Powell et al. (2018).
as §1, §2

[10] = system: E. coli IR57 biofilm; assay: Multiple particle tracking (MPT) of 200 nm FluoSpheres in established biofilm; format: cell-based, Escherichia coli; conditions: for Diffusion coefficient (Deff) ± standard deviation: 200 nm negatively-charged carboxylate-modified FluoSpheres in E. coli IR57 biofilms, 256 μg/mL, 24 h treatment; for mean squared displacement (MSD) of FluoSphere particles / biofilm creep compliance: E. coli IR57 biofilm, vs untreated and ethanol blank controls; for mean squared displacement (MSD) of FluoSphere particles: 200 nm FluoSpheres; for biofilm creep compliance: derived from MSD vs lag time
Method: The effect of three epoxytiglienones (Compounds 1, 4 and 6) on the assembly and permeability of established biofilms of E. coli was assessed using multiple particle tracking (MPT). MPT is a recently described technique, allowing simultaneous tracking of micron-size particles through biofilms using microscopy, from which the diffusion-based parameters of embedded particles within the extracellular polymeric matrix (EPS) of the biofilm can be determined (Cao et al. 2016). MPT measurements also allows for calculation of micro-rheological properties of the biofilm structure following treatment with test compounds.
E. coli biofilms were established and epoxytiglienone and control treatments applied as described in Example 2 above. Twenty-four hours after application of the treatments, the biofilms were stained with SYTO9® and 0.0025% of negatively-charged, carboxylate-modified FluoSpheres® (200 nm) added onto the biofilms and incubated for a further 2 hours. FluoSphere® particle movements within the biofilms were then captured on video using epifluorescence microscopy with a high frame-rate camera (33 ms). Particle trajectories were tracked using ImageJ softwaren (Mosaic) before calculation of three parameters of the 200 nm FluoSphere® particles: (i) ensemble diffusion coefficient (Deff), (ii) ensemble mean squared displacement (MSD) and (iii) creep compliance (a measure of resistance to mechanical deformation derived from the MSD vs lag time). Each treatment was replicated three times.

SMILES	DEAD/LIVE bacterial ratio [1]	DEAD/LIVE bacterial ratio [2]	biofilm bio-volume (COMSTAT) [2]	Minimum inhibitory concentrations [3]	Minimum inhibitory concentrations [4]	Minimum inhibitory concentrations [5]	Minimum inhibitory concentrations [6]	Minimum inhibitory concentrations [7]	Minimum inhibitory concentrations [8]	biofilm bio-volume (COMSTAT) [9]	distribution and density of bacteria in the biofilm (CLSM) [9]	Diffusion coefficient (Deff) ± standard deviation [10] [cm^2 · s^−1 × 10^−9]	mean squared displacement (MSD) of FluoSphere particles [10]	biofilm creep compliance [10]
CCCCCC=CC=CC(=O)OC1C(C)C2(O)C(C3OC3(CO)C(O)C3(O)C(=O)C(C)=CC32)C2C(C)(C)C12OC(=O)C(C)CC (centres unmarked) [CC-1, 12-(2,4-decadienoyl)-13-(2-methylbutanoyl)-6,7-epoxy-4,5,9,12,13,20-hexahydroxy-1-tiglien-3-one, reference compound]	no significant differences	no significant differences	significant reductions	C	C	C	8 µg/mL (≈ 12.7 µM)	8 µg/mL (≈ 12.7 µM)	C	no apparent effect	no apparent effect	–	–	–
CCCCCC=CC=CC(=O)O[C@@H]1C(C)[C@]2(O)C(C3OC3(CO)[C@H](O)[C@@]3(O)C(=O)C(C)=CC23)C2C(C)(C)[C@]21OC(=O)C(C)CC (stereo partly drawn) [CC-2, 12R-(2,4-decadienoyl)-13R-(2-methylbutanoyl)-6,7-epoxy-4R,5R,9S,12R,13R,20-hexahydroxy-1-tiglien-3-one, reference compound]	–	–	–	C	C	C	16 µg/mL (≈ 25.4 µM)	8 µg/mL (≈ 12.7 µM)	C	–	–	–	–	–
C/C=C(\C)C(=O)O[C@@H]1[C@@H](C)[C@@]2(O)[C@H]([C@@H]3C(C)(C)[C@]13OC(=O)[C@@H](C)CC)[C@@H]1O[C@]1(CO)[C@@H](O)[C@]1(O)C(=O)C(C)=C[C@H]12 [Compound 1, 12-tigloyl-13-(2-methylbutanoyl)-6,7-epoxy-4,5,9,12,13,20-hexahydroxy-1-tiglien-3-one]	no significant differences	no significant differences	significant reductions	C	C	C	256 µg/mL (≈ 455 µM)	128 µg/mL (≈ 227 µM)	C	Significant decreases	significant changes	0.6018 ± 0.0901	substantially higher	increased
CCC(C)C(=O)OC1C(C)C2(O)C(C3OC3(CO)C(O)C3(O)C(=O)C(C)=CC32)C2C(C)(C)C12OC(=O)C(C)CC (centres unmarked) [Compound 2, 12,13-di-(2-methylbutanoyl)-6,7-epoxy-4,5,9,12,13,20-hexahydroxy-1-tiglien-3-one]	–	–	–	C	C	C	256 µg/mL (≈ 453 µM)	128 µg/mL (≈ 227 µM)	C	–	–	–	–	–
CCCCCC(=O)OC1C(C)C2(O)C(C3OC3(CO)C(O)C3(O)C(=O)C(C)=CC32)C2C(C)(C)C12OC(=O)C(C)CC (centres unmarked) [Compound 3, 12-hexanoyl-13-(2-methylbutanoyl)-6,7-epoxy-4,5,9,12,13,20-hexahydroxy-1-tiglien-3-one]	–	–	–	C	C	C	256 µg/mL (≈ 442 µM)	128 µg/mL (≈ 221 µM)	C	–	–	–	–	–
CCC(=O)OC1C(C)C2(O)C(C3OC3(CO)C(O)C3(O)C(=O)C(C)=CC32)C2C(C)(C)C12OC(=O)C(C)CC (centres unmarked) [Compound 6, 12-propanoyl-13-(2-methylbutanoyl)-6,7-epoxy-4,5,9,12,13,20-hexahydroxy-1-tiglien-3-one]	no significant differences	no significant differences	–	C	C	C	C	C	C	Decreases in bio-volume were evident	significant changes	0.1607 ± 0.0104	substantially higher	increased
